These results are taken from patent publication US10227323B2, “Glucosylceramide synthase inhibitors for the treatment of diseases” (BIOMARIN PHARMACEUTICAL INC., priority 2013, dated 2019).

Molecules are shown by their SMILES. Where only a bound is given, the exact number is not on record here.

One experiment has as its target T1, GCS (Canis lupus familiaris, UniProt A0A8I3MXG6).
T1 sequence (A0A8I3MXG6 1-394): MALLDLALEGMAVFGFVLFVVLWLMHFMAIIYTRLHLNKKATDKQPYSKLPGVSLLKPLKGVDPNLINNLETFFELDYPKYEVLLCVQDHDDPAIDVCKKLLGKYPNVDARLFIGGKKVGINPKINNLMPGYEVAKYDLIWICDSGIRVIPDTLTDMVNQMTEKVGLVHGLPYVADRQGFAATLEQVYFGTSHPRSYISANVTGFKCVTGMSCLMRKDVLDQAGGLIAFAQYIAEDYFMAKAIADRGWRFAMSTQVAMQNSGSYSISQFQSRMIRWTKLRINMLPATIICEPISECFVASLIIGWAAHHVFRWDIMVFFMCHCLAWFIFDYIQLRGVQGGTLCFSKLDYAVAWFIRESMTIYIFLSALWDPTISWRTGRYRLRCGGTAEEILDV
Briefly: Assay 1: GCS Enzymatic Assay (MDCK cell lysate, C6-NBD-Ceramide, LC/MS). The class given is biochemical, canine. To be noted: Table 2; data marked by *. A digest of the protocol:
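LC/MS/MS measurement of glucosylceramide and NBD-ceramide after a 1 h, 37 °C reaction with 100 μM UDP-glucose and 10 μM C6-NBD-ceramide gave IC50s or percent inhibition.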
`O=C(N[C@H](CN1CCCC1)[C@H](O)c1ccc(OCC(F)(F)F)nc1)C(F)(F)C1Cc2ccc(Cl)cc2C1` (stereo partly drawn) [Compound 91, 2-(5-chloro-2,3-dihydro-1H-inden-2-yl)-2,2-difluoro-N-((1R,2R)-1-hydroxy-3-(pyrrolidin-1-yl)-1-(6-(2,2,2-trifluoroethoxy)pyridin-3-yl)propan-2-yl)acetamide]: the “% inhibition generated from Assay 1” value is recorded as “B* (the compound had a % inhibition of greater than or equal to about 3% but less than about 50%)”.

For `CC1CN(C[C@@H](NC(=O)C(F)(F)CCc2ccc3cc(F)ccc3c2)[C@H](O)c2ccc3c(c2)OCCO3)C1` [Compound 96, N-((1R,2R)-1-(2,3-dihydrobenzo[b][1,4]dioxin-6-yl)-1-hydroxy-3-(3-methylazetidin-1-yl)propan-2-yl)-2,2-difluoro-4-(6-fluoronaphthalen-2-yl)butanamide], the “% inhibition generated from Assay 1” value is recorded as “A* (the compound had a % inhibition of a percent inhibition of greater than or equal to about 50%)”. The same measure, in the same setting: for `CC(C)Oc1ccc([C@@H](O)[C@@H](CN2CCCC2)NC(=O)C(F)(F)CCc2ccc3cc(F)ccc3c2)cn1` [Compound 97, 2,2-difluoro-4-(6-fluoronaphthalen-2-yl)-N-((1R,2R)-1-hydroxy-1-(6-isopropoxypyridin-3-yl)-3-(pyrrolidin-1-yl)propan-2-yl)butanamide] the value was “A* (the compound had a % inhibition of a percent inhibition of greater than or equal to about 50%)”; for `CC1CN(C[C@@H](NC(=O)C(=O)c2cc3cc(Cl)ccc3o2)[C@H](O)c2ccc3c(c2)OCCO3)C1` [Compound 100, 2-(5-chlorobenzofuran-2-yl)-N-((1R,2R)-1-(2,3-dihydrobenzo[b][1,4]dioxin-6-yl)-1-hydroxy-3-(3-methylazetidin-1-yl)propan-2-yl)-2-oxoacetamide], “B* (the compound had a % inhibition of greater than or equal to about 3% but less than about 50%)”. As for `CC(C)Oc1cc([C@@H](O)[C@@H](CN2CCCC2)NC(=O)C(F)(F)CCc2ccc3cc(F)ccc3c2)ccn1` [Compound 114, 2,2-difluoro-4-(6-fluoronaphthalen-2-yl)-N-((1R,2R)-1-hydroxy-1-(2-isopropoxypyridin-4-yl)-3-(pyrrolidin-1-yl)propan-2-yl)butanamide], the “% inhibition generated from Assay 1” value is recorded as “A* (the compound had a % inhibition of a percent inhibition of greater than or equal to about 50%)”.

Staying with this experiment, now noted: Table 2; data without asterisk; read-out: IC50 (nM) generated from Assay 1.
Usually IC50 stands for the concentration at which inhibition is half-maximal. For `O=C(N[C@H](CN1CCC1)[C@H](O)c1cc(F)c2c(c1)OCCO2)C(F)(F)C1Cc2ccc(Cl)cc2C1` (stereo partly drawn) [Compound 92, N-((1R,2R)-3-(azetidin-1-yl)-1-(8-fluoro-2,3-dihydrobenzo[b][1,4]dioxin-6-yl)-1-hydroxypropan-2-yl)-2-(5-chloro-2,3-dihydro-1H-inden-2-yl)-2,2-difluoroacetamide], the IC50 was under 50 nM. Regarding `O=C(N[C@H](CN1CCCC1)[C@H](O)c1cc(F)c2c(c1)OCCO2)C(F)(F)C1Cc2ccc(Cl)cc2C1` (stereo partly drawn) [Compound 93, 2-(5-chloro-2,3-dihydro-1H-inden-2-yl)-2,2-difluoro-N-((1R,2R)-1-(8-fluoro-2,3-dihydrobenzo[b][1,4]dioxin-6-yl)-1-hydroxy-3-(pyrrolidin-1-yl)propan-2-yl)acetamide], the IC50 is under 50 nM. Take `CC(C)Oc1ccc([C@@H](O)[C@@H](CN2CCCC2)NC(=O)C(F)(F)c2cc3cc(Cl)ccc3o2)cc1Cl` [Compound 94, N-((1R,2R)-1-(3-chloro-4-isopropoxyphenyl)-1-hydroxy-3-(pyrrolidin-1-yl)propan-2-yl)-2-(5-chlorobenzofuran-2-yl)-2,2-difluoroacetamide]: the IC50 is under 50 nM. `O=C(N[C@H](CN1CCCC1)[C@H](O)c1cc(F)c2c(c1)OCCO2)C(=O)c1cc2cc(Cl)ccc2o1` [Compound 95, 2-(5-chlorobenzofuran-2-yl)-N-((1R,2R)-1-(8-fluoro-2,3-dihydrobenzo[b][1,4]dioxin-6-yl)-1-hydroxy-3-(pyrrolidin-1-yl)propan-2-yl)-2-oxoacetamide]: the IC50 is under 50 nM.

In the case of `O=C(N[C@H](CN1CCC1)[C@H](O)c1cc(F)c2c(c1)OCCO2)C(=NO)c1cc2cc(Cl)ccc2o1` [Compound 98, N-((1R,2R)-3-(azetidin-1-yl)-1-(8-fluoro-2,3-dihydrobenzo[b][1,4]dioxin-6-yl)-1-hydroxypropan-2-yl)-2-(5-chlorobenzofuran-2-yl)-2-(hydroxyimino)acetamide], the IC50 is under 50 nM. In the case of `O=C(N[C@H](CN1CCCC1)[C@H](O)c1ccc(OC2CC2)nc1)C(F)(F)c1cc2cc(Cl)ccc2o1` [Compound 99, 2-(5-chlorobenzofuran-2-yl)-N-((1R,2R)-1-(6-cyclopropoxypyridin-3-yl)-1-hydroxy-3-(pyrrolidin-1-yl)propan-2-yl)-2,2-difluoroacetamide], the IC50 is under 50 nM. As for `O=C(N[C@H](CN1CCCC1)[C@H](O)c1ccc(OC2CC2)nc1)C(F)(F)CCc1ccc2cc(F)ccc2c1` [Compound 101, N-((1R,2R)-1-(6-cyclopropoxypyridin-3-yl)-1-hydroxy-3-(pyrrolidin-1-yl)propan-2-yl)-2,2-difluoro-4-(6-fluoronaphthalen-2-yl)butanamide], the IC50 was under 50 nM. The same measure, in the same setting: for `CC1CN(C[C@@H](NC(=O)/C(=N/O)c2cc3cc(Cl)ccc3o2)[C@H](O)c2ccc3c(c2)OCCO3)C1` [Compound 102, (E)-2-(5-chlorobenzofuran-2-yl)-N-((1R,2R)-1-(2,3-dihydrobenzo[b][1,4]dioxin-6-yl)-1-hydroxy-3-(3-methylazetidin-1-yl)propan-2-yl)-2-(hydroxyimino)acetamide] the value was under 50 nM; for `O=C(N[C@H](CN1CCCC1)[C@H](O)c1cc(F)c2c(c1)OCCO2)/C(=N/O)c1cc2cc(Cl)ccc2o1` [Compound 104, (E)-2-(5-chlorobenzofuran-2-yl)-N-((1R,2R)-1-(8-fluoro-2,3-dihydrobenzo[b][1,4]dioxin-6-yl)-1-hydroxy-3-(pyrrolidin-1-yl)propan-2-yl)-2-(hydroxyimino)acetamide], under 50 nM. For `O=C(N[C@H](CN1CCCC1)[C@H](O)c1ccc(OC2CCOCC2)c(Cl)c1)C(F)(F)c1cc2cc(Cl)ccc2o1` [Compound 105, N-((1R,2R)-1-(3-chloro-4-((tetrahydro-2H-pyran-4-yl)oxy)phenyl)-1-hydroxy-3-(pyrrolidin-1-yl)propan-2-yl)-2-(5-chlorobenzofuran-2-yl)-2,2-difluoroacetamide], the IC50 was under 50 nM.

For the molecule `O=C(N[C@H](CN1CCCC1)[C@H](O)c1ccc2c(c1)OCCO2)/C(CCc1ccc2cc(F)ccc2c1)=N/O` [Compound 106, (E)-N-((1R,2R)-1-(2,3-dihydrobenzo[b][1,4]dioxin-6-yl)-1-hydroxy-3-(pyrrolidin-1-yl)propan-2-yl)-4-(6-fluoronaphthalen-2-yl)-2-(hydroxyimino)butanamide], the IC50 is under 50 nM. For `CC(C)Oc1ccc([C@@H](O)[C@@H](CN2CCCC2)NC(=O)C(F)(F)CCc2ccc3ccccc3c2)cn1` [Compound 107, 2,2-difluoro-N-((1R,2R)-1-hydroxy-1-(6-isopropoxypyridin-3-yl)-3-(pyrrolidin-1-yl)propan-2-yl)-4-(naphthalen-2-yl)butanamide], the IC50 is under 50 nM. `O=C(N[C@H](CN1CCCC1)[C@H](O)c1ccc(OCC(F)(F)F)nc1)C(F)(F)CCc1ccc2ccccc2c1` [Compound 108, 2,2-difluoro-N-((1R,2R)-1-hydroxy-3-(pyrrolidin-1-yl)-1-(6-(2,2,2-trifluoroethoxy)pyridin-3-yl)propan-2-yl)-4-(naphthalen-2-yl)butanamide]: the IC50 is 50 to 5000 nM. The same measure, in the same setting: the figure for `O=C(N[C@H](CN1CCCC1)[C@H](O)c1cc(F)c2c(c1)OCCO2)C(F)(F)CCc1ccc2ccccc2c1` [Compound 109, 2,2-difluoro-N-((1R,2R)-1-(8-fluoro-2,3-dihydrobenzo[b][1,4]dioxin-6-yl)-1-hydroxy-3-(pyrrolidin-1-yl)propan-2-yl)-4-(naphthalen-2-yl)butanamide] is under 50 nM. On the same count and under the same terms, for `O=C(N[C@H](CN1CCCC1)[C@H](O)c1ccc(OC2CCOCC2)c(Cl)c1)C(F)(F)CCc1ccc2ccccc2c1` [Compound 110, N-((1R,2R)-1-(3-chloro-4-((tetrahydro-2H-pyran-4-yl)oxy)phenyl)-1-hydroxy-3-(pyrrolidin-1-yl)propan-2-yl)-2,2-difluoro-4-(naphthalen-2-yl)butanamide] the value was under 50 nM. In the case of `O=C(CCc1ccc2cc(F)ccc2c1)C(=O)N[C@H](CN1CCCC1)[C@H](O)c1cc(F)c2c(c1)OCCO2` [Compound 111, N-((1R,2R)-1-(8-fluoro-2,3-dihydrobenzo[b][1,4]dioxin-6-yl)-1-hydroxy-3-(pyrrolidin-1-yl)propan-2-yl)-4-(6-fluoronaphthalen-2-yl)-2-oxobutanamide], the IC50 is under 50 nM. Regarding `O=C(N[C@H](CN1CCCC1)[C@H](O)c1ccc(OC2CC2)c(Cl)c1)/C(CCc1ccc2cc(F)ccc2c1)=N/O` [Compound 112, (E)-N-((1R,2R)-1-(3-chloro-4-cyclopropoxyphenyl)-1-hydroxy-3-(pyrrolidin-1-yl)propan-2-yl)-4-(6-fluoronaphthalen-2-yl)-2-(hydroxyimino)butanamide], the IC50 was under 50 nM. On the same count and under the same terms, for `O=C(N[C@H](CN1CCCC1)[C@H](O)c1cc(F)c2c(c1)OCCO2)/C(CCc1ccc2cc(F)ccc2c1)=N/O` [Compound 115, (E)-N-((1R,2R)-1-(8-fluoro-2,3-dihydrobenzo[b][1,4]dioxin-6-yl)-1-hydroxy-3-(pyrrolidin-1-yl)propan-2-yl)-4-(6-fluoronaphthalen-2-yl)-2-(hydroxyimino)butanamide] the value was under 50 nM.
